Results as given in ChEMBL document CHEMBL1201862, “PubChem BioAssay data set” (2004).
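Following 48 hours of exposure in 96-well plates, responses at five concentrations were used to interpolate endpoints linearly. GI50 marks 50% less growth.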 Calls of active or inactive are those of the source. Cut-off read from the data, not from the text of the source: active = GI50 up to about 1.1 µM and inactive = higher.

Key:
Assay in all cases: NCI anticancer screen, dose series, 48 h
A498 = test system: A498
A549 = test system: A549
CAKI-1 = test system: CAKI-1
CCRF-CEM = test system: CCRF-CEM
COLO 205 = test system: COLO 205
DLD-1 = test system: DLD-1
DMS-114 = test system: DMS-114
DMS-273 = test system: DMS-273
EKVX = test system: EKVX
HCC 2998 = test system: HCC 2998
HCT-116 = test system: HCT-116
HCT-15 = test system: HCT-15
HOP-18 = test system: HOP-18
HOP-62 = test system: HOP-62
HOP-92 = test system: HOP-92
HT-29 = test system: HT-29
IGROV-1 = test system: IGROV-1
K562 = test system: K562
KM-20L2 = test system: KM-20L2
KM12 = test system: KM12
LOX IMVI = test system: LOX IMVI
M19-MEL = test system: M19-MEL
MCF7 = test system: MCF7
MOLT-4 = test system: MOLT-4
Malme-3M = test system: Malme-3M
NCI-H226 = test system: NCI-H226
NCI-H23 = test system: NCI-H23
NCI-H460 = test system: NCI-H460
NCI-H522 = test system: NCI-H522
NCI/ADR-RES = test system: NCI/ADR-RES
OVCAR-3 = test system: OVCAR-3
OVCAR-4 = test system: OVCAR-4
OVCAR-5 = test system: OVCAR-5
OVCAR-8 = test system: OVCAR-8
RPMI-8226 = test system: RPMI-8226
RXF 393 = test system: RXF 393
SF-268 = test system: SF-268
SF-295 = test system: SF-295
SF-539 = test system: SF-539
SK-MEL-28 = test system: SK-MEL-28
SK-MEL-2 = test system: SK-MEL-2
SK-MEL-5 = test system: SK-MEL-5
SK-OV-3 = test system: SK-OV-3
SN12C = test system: SN12C
SNB-19 = test system: SNB-19
SNB-75 = test system: SNB-75
SNB-78 = test system: SNB-78
SW-620 = test system: SW-620
U-251 = test system: U-251
UACC-257 = test system: UACC-257
UACC-62 = test system: UACC-62
UO-31 = test system: UO-31
XF498 = test system: XF498
HL-60 = test system: HL-60

C[C@H](CN1CC(=O)NC(=O)C1)N1CC(=O)NC(=O)C1
GI50 (A498): > 64.6 µM (inactive) | GI50 (A549): > 70.5 µM (inactive) | GI50 (CAKI-1): > 100 µM (inactive) | GI50 (CCRF-CEM): 34.3 µM (inactive) | GI50 (COLO 205): 11.7 µM (inactive) | GI50 (DLD-1): > 86.5 µM (inactive) | GI50 (DMS-114): 0.18 µM (active) | GI50 (DMS-273): > 100 µM (inactive) | GI50 (EKVX): 57 µM (inactive) | GI50 (HCC 2998): 22.7 µM (inactive) | GI50 (HCT-116): 82.4 µM (inactive) | GI50 (HCT-15): > 76.2 µM | GI50 (HOP-18): > 100 µM (inactive) | GI50 (HOP-62): > 65 µM (inactive) | GI50 (HOP-92): > 100 µM (inactive) | GI50 (HT-29): > 100 µM (inactive) | GI50 (IGROV-1): > 100 µM (inactive) | GI50 (K562): > 84.3 µM (inactive) | GI50 (KM-20L2): > 87.7 µM (inactive) | GI50 (KM12): > 100 µM (inactive) | GI50 (LOX IMVI): > 100 µM (inactive) | GI50 (M19-MEL): > 100 µM (inactive) | GI50 (MCF7): 44.2 µM (inactive) | GI50 (MOLT-4): 9.89 µM (inactive) | GI50 (Malme-3M): 42.9 µM (inactive) | GI50 (NCI-H226): 39 µM (inactive) | GI50 (NCI-H23): > 86.1 µM (inactive) | GI50 (NCI-H460): 9.31 µM (inactive) | GI50 (NCI-H522): 20.8 µM (inactive) | GI50 (NCI/ADR-RES): > 100 µM (inactive) | GI50 (OVCAR-3): > 100 µM (inactive) | GI50 (OVCAR-4): > 100 µM (inactive) | GI50 (OVCAR-5): > 100 µM (inactive) | GI50 (OVCAR-8): > 100 µM (inactive) | GI50 (RPMI-8226): > 53.2 µM (inactive) | GI50 (RXF 393): > 100 µM (inactive) | GI50 (SF-268): > 96.2 µM (inactive) | GI50 (SF-295): > 100 µM (inactive) | GI50 (SF-539): > 100 µM (inactive) | GI50 (SK-MEL-28): > 100 µM (inactive) | GI50 (SK-MEL-2): > 10 µM (inactive) | GI50 (SK-MEL-5): > 100 µM (inactive) | GI50 (SK-OV-3): > 100 µM (inactive) | GI50 (SN12C): > 85.3 µM (inactive) | GI50 (SNB-19): 50.4 µM (inactive) | GI50 (SNB-75): > 100 µM (inactive) | GI50 (SNB-78): > 100 µM (inactive) | GI50 (SW-620): > 47.3 µM (inactive) | GI50 (U-251): 58.2 µM (inactive) | GI50 (UACC-257): > 100 µM (inactive) | GI50 (UACC-62): > 100 µM (inactive) | GI50 (UO-31): 20 µM (inactive) | GI50 (XF498): > 100 µM (inactive)

COc1ccc2c(c1)CCCc1cn[nH]c1-2
GI50 (A498): > 100 µM (inactive) | GI50 (A549): > 100 µM (inactive) | GI50 (CAKI-1): 77.8 µM (inactive) | GI50 (CCRF-CEM): > 72.4 µM (inactive) | GI50 (COLO 205): > 100 µM (inactive) | GI50 (DLD-1): > 100 µM (inactive) | GI50 (DMS-114): > 100 µM (inactive) | GI50 (DMS-273): > 100 µM (inactive) | GI50 (EKVX): > 74.6 µM (inactive) | GI50 (HCC 2998): > 100 µM (inactive) | GI50 (HCT-116): > 100 µM (inactive) | GI50 (HCT-15): > 100 µM | GI50 (HL-60): > 100 µM (inactive) | GI50 (HOP-18): > 100 µM (inactive) | GI50 (HOP-62): > 100 µM (inactive) | GI50 (HOP-92): > 100 µM (inactive) | GI50 (HT-29): > 100 µM (inactive) | GI50 (K562): > 65.8 µM (inactive) | GI50 (KM-20L2): > 100 µM (inactive) | GI50 (KM12): > 100 µM (inactive) | GI50 (LOX IMVI): > 100 µM (inactive) | GI50 (M19-MEL): > 100 µM (inactive) | GI50 (MCF7): > 100 µM (inactive) | GI50 (MOLT-4): > 100 µM (inactive) | GI50 (Malme-3M): > 100 µM (inactive) | GI50 (NCI-H226): > 100 µM (inactive) | GI50 (NCI-H23): > 100 µM (inactive) | GI50 (NCI-H460): > 100 µM (inactive) | GI50 (NCI-H522): > 100 µM (inactive) | GI50 (NCI/ADR-RES): > 100 µM (inactive) | GI50 (OVCAR-3): > 100 µM (inactive) | GI50 (OVCAR-4): > 100 µM (inactive) | GI50 (OVCAR-5): > 100 µM (inactive) | GI50 (OVCAR-8): > 100 µM (inactive) | GI50 (RXF 393): > 89.1 µM (inactive) | GI50 (SF-268): > 100 µM (inactive) | GI50 (SF-295): > 100 µM (inactive) | GI50 (SF-539): > 100 µM (inactive) | GI50 (SK-MEL-28): > 100 µM (inactive) | GI50 (SK-MEL-2): > 100 µM (inactive) | GI50 (SK-MEL-5): > 100 µM (inactive) | GI50 (SK-OV-3): > 100 µM (inactive) | GI50 (SN12C): > 100 µM (inactive) | GI50 (SNB-19): > 100 µM (inactive) | GI50 (SNB-75): > 100 µM (inactive) | GI50 (SNB-78): > 100 µM (inactive) | GI50 (SW-620): > 100 µM (inactive) | GI50 (U-251): > 100 µM (inactive) | GI50 (UACC-257): > 100 µM (inactive) | GI50 (UACC-62): > 100 µM (inactive) | GI50 (UO-31): > 100 µM (inactive) | GI50 (XF498): > 100 µM (inactive)
